Measured values from patent US20050112199A1, “Therapeutic regimens for administering drug combinations” (priority 2003, published 2005).
Where two headings read alike, the source gives them in different places. One block for each molecule: values may come before it.

Experiments:
[1] = PK study of amoxapine and prednisolone administered orally to humans; settings: amoxapine/prednisolone combination PK study, oral
[2] = monotherapy, cited from earlier work
[3] = PK study of paroxetine and prednisolone administered orally to humans; type: in vivo, human; settings: paroxetine/prednisolone combination PK study, oral

Structure (SMILES): CCCC1O[C@@H]2C[C@H]3[C@@H]4CCC5=CC(=O)C=C[C@]5(C)[C@H]4[C@@H](O)C[C@]3(C)[C@]2(C(=O)CO)O1 (stereo partly shown) [Budesonide]
Mean Tmax ([2]; inhaled, 200 μg): 0.5 h | Mean elimination half life (Hours) ([2]; inhaled, 200 μg): ca. 2 Hours

Structure (SMILES): OCCN(CCO)c1nc(N2CCCCC2)c2nc(N(CCO)CCO)nc(N3CCCCC3)c2n1 [Dipyridamole, 2,6-bis(diethanolamino)-4,8-dipiperidinopyrimido(5,4-d)pyrimidine]
Mean Tmax ([2]; oral, 25 mg): 0.75 h | Mean elimination half life ([2]; oral, 25 mg): 10 h

Structure (SMILES): CNCCC=C1c2ccccc2CCc2ccccc21 [Nortriptyline]
Mean Tmax ([2]; oral, 25 mg): 8 h | Mean elimination half life ([2]; oral, 25 mg): 16 h

Second part, led by results:

Mean Tmax ([1]; 100 mg): 2.4 h | Mean elimination half life ([1]; 100 mg): 9.7 h
Structure (SMILES): Clc1ccc2c(c1)C(N1CCNCC1)=Nc1ccccc1O2 [Amoxapine]

Mean Tmax ([3]; 20 mg): 7 h | Mean elimination half life ([3]; 20 mg): 20.2 h
Structure (SMILES): Fc1ccc([C@@H]2CCNC[C@H]2COc2ccc3c(c2)OCO3)cc1 [Paroxetine]

Mean Tmax ([3]; 3 mg): 1.9 h | Mean elimination half life ([3]; 3 mg): 2.7 h | Mean Tmax ([1]; 3 mg): 1.9 h | Mean elimination half life ([1]; 3 mg): 4.5 h
Structure (SMILES): C[C@]12C=CC(=O)C=C1CC[C@@H]1[C@@H]2[C@@H](O)C[C@@]2(C)[C@H]1CC[C@]2(O)C(=O)CO [Prednisolone]
Mean Tmax ([2]; oral, 3 mg): 1.9 h | Mean elimination half life ([2]; oral, 3 mg): 2.7 h
